Assay results as given in US12692232B2, “Indole carboxamide compound, preparation therefor and use thereof” (NANJING RUISHUNING MEDICAL TECHNOLOGY CO., LTD., priority 2021, dated 2026).

Test system: rat model of pulmonary hypertension induced by monocrotaline
Test: Rat model of pulmonary hypertension induced by monocrotaline
Format: in vivo
Details: for reduction of TNF-α levels compared with the MCT model: 25 mg/kg; for RV/(LV + S): MCT model 0.45 ± 0.03; for TNF-α in lung tissue: MCT model 0.94 ± 0.07; for mPAP: MCT model 33.7 ± 4.3; for small pulmonary artery lesions compared with the model group (histopathology, H&E): treatment groups
Experimental: The preventive effect of the compounds of the present invention (as exemplified by compound 1-1 obtained in Example 1) on pulmonary hypertension was determined using a rat model of pulmonary hypertension induced by monocrotaline. The method was as follows:
Grouping of animals: 70 male SD rats with weigh of 200±20 g were randomly divided into 7 groups, i.e., a normal control group, a monocrotaline (MCT) model group, a treatment group of low-dose compound 1-1 (10 mg/kg) (MCT), a treatment group of medium-dose compound 1-1 (25 mg/kg) (MCT), a treatment group of high-dose compound 1-1 (50 mg/kg) (MCT), a treatment group of medium-dose indole analogue 3-[(1-methyl-1H-indole-2-carbonyl)amino]propionic acid (25 mg/kg) disclosed in CN2019107285315 (MCT), and a sildenafil group (150 mg/kg) (MCT), with 10 rats in each group.
Experimental procedure: MCT was prepared as a 2% solution with a mixture of ethanol and saline (2:8) and the solution was injected intraperitoneally once at a dose of 60 mg/kg body weight in all groups except the normal control group. Each rat in the normal control group was injected intraperitoneally once with a solution prepared from ethanol and saline in a volume ratio of 2:8. Compound 1-1 obtained in Example 1, the indole analogue 3-[(1-methyl-1H-indole-2-carbonyl)amino]propionic acid disclosed in CN2019107285315, or the positive drug sildenafil was administered by gavage to the mice in the treatment groups on the day of modelling, and saline was administered by gavage to the mice in the normal control group and the MCT model group. The drugs were administered by gavage once a day for 28 days until 12 hours before test.
Determination of hemodynamic indexes: a polyethylene plastic microcatheter filled with heparin solution (0.9% sodium chloride solution+10 U/mL heparin) was inserted into the right external jugular vein of a rat, and the other end of the microcatheter was connected to a miniature pressure transducer to monitor the pressure changes. […] After 30 minutes of stabilization, the POWERLAB multi-channel intelligent physiological signal acquisition and recording system was applied to acquire, record and analyze the indexes.
Determination of the index of right ventricular (RV) hypertrophy: at the end of the experiment, the heart was removed by dissection of the thorax and the atrial tissue was cut off. The right ventricle (RV), left ventricle (LV), and interventricular septum (S) were isolated along the edge of the interventricular septum, and the RV, LV, and S were weighed after absorbing water with filter paper and the ratio RV/(LV+S) was used to reflect the degree of RV hypertrophy.
Pathological examination of pulmonary vessels: tissue blocks were taken from the same site in the lower lobe of the right lung and fixed in 10% neutral formaldehyde (pH=7.4) for 2 days. Routine paraffin embedding, serial sections, H&E staining and light microscopy were performed to observe morphological changes in small pulmonary arteries.
Effect on inflammatory factors in lung tissue: Lung tissues were collected from each group of rats, homogenates of lung tissue were prepared and centrifuged and supernatants were collected. The protein level in the supernatant was determined by Coomassie brilliant blue method, and tumor necrosis factor-α (TNF-α) in rats was determined by an ELISA kit (Beijing 4A Biotech Co., Ltd.). […]

[1] = MCT + 25 mg/kg gavage once a day 28 days

SMILES | reduction of TNF-α levels compared with the MCT model | RV/(LV + S) (MCT + 25 mg/kg gavage 28 days) | TNF-α in lung tissue (MCT + 25 mg/kg gavage 28 days) | mPAP [1] | small pulmonary artery lesions compared with the model group (histopathology, H&E) | RV/(LV + S) (MCT + 10 mg/kg gavage 28 days) | TNF-α in lung tissue (MCT + 10 mg/kg gavage 28 days) | mPAP (MCT + 10 mg/kg gavage once a day 28 days) | RV/(LV + S) (MCT + 50 mg/kg gavage 28 days) | TNF-α in lung tissue (MCT + 50 mg/kg gavage 28 days) | mPAP (MCT + 50 mg/kg gavage once a day 28 days)
Cn1c(C(=O)NCCC(=O)O)cc2ccccc21 [3-[(1-methyl-1H-indole-2-carbonyl)amino]propionic acid, reference compound] | 37.2% | 0.38 ± 0.04 | 0.59 ± 0.07 g/g protein | 28.9 ± 3.4 mmHg | significantly reduced | – | – | – | – | – | –
CC(=O)OCCCNC(=O)c1c(C=O)c2ccccc2n1C [compound 1-1, propyl 3-[(3-formyl-1-methyl-1H-indole-2-carbonyl)amino]acetate] | 58.5% | 0.31 ± 0.04 | 0.39 ± 0.05 g/g protein | 25.8 ± 2.5 mmHg | significantly reduced | 0.37 ± 0.04 | 0.65 ± 0.08 g/g protein | 26.0 ± 2.8 mmHg | 0.28 ± 0.03 | 0.34 ± 0.05 g/g protein | 20.3 ± 3.0 mmHg
